Two compounds from patent publication US8895497B2, “Cathepsin S inhibitors” (DCB-USA, LLC, priority 2009, dated 2014) can be followed below.

One experiment relates to pancreatic cancer cells. Briefly: Migration/invasion of pancreatic cancer cells. Format: cell-based, human. The procedure: (§1) The cancer cell migration assay was performed in 96-wll-MultiScreen-MIC plates (Millipore) with 8 μm-pore-sized polycarbonate membrane. Briefly, highly-metastatic human lung adenocarcinoma CL1-5 cells were placed onto the upper chamber (2×10^4 cells/well) with tested compounds in complete medium (RPMI 1640 medium containing 1% FBS) and only medium placed onto the lower chamber. The chamber culture was incubated for 24 h at 37° C. and, then, the non-migrated cells were washed off the upper surface of the membrane. The migrated cells on the bottom side were dissociated with Cell Detachment Buffer (Chemicon, Inc.), lysed and stained for nucleic acids with CyQuant GR dye (Molecular Probes). The signal intensities were measured using a fluorescence reader (VICTORTIM 1420 Multilabel Counter, Wallac) at excitation wavelength of 485 nm and emission wavelength of 535 nm (1 sec). The result was presented as the average values from three independent experiments performed in duplicates.
(§2) Similarly, Compounds 1 and 118 were tested against human A2058 melanoma cells and pancreatic cancer cells.

For experiment [1], the system named is human A2058 melanoma cells. The experiment in a line: Migration/invasion of A2058 melanoma cells. Format: cell-based. Here is the method: as §1, §2
The next experiment relates to A2058 melanoma cells. Briefly: In vivo assay, mice inoculated with A2058 melanoma cells. More on the design: species or system BALB/cAnN-Foxn1nu/CrlNarl female mice. Here is the method: BALB/cAnN-Foxn1nu/CrlNarl female mice were inoculated with A2058 melanoma cells. On day 7, 12 mice were treated i.v. with Compound 1 in DMSO (mg/kg) and 8 mice were treated with DMSO as control. The treatment was continued for 72 days. The mice were sacrificed and their lungs were weighted.

On to `O=C(NCCC1CCCCC1)C(O)[C@H](CCc1ccccc1)NC(=O)[C@H](CC1CCCCC1)NC(=O)N1CCOCC1` (stereo partly shown) [Compound 118], for which, in the experiment with pancreatic cancer cells, the “inhibition of migratory and invasice abilities of pancreatic cancer cells” value is “effective inhibited migratory and invasice abilities”.

Consider `CCOC(=O)CNC(=O)C(=O)[C@H](COCc1ccccc1)NC(=O)[C@H](CC(C)C)NC(=O)c1cccc2c1C(=O)c1ccccc1-2` (stereo in doubt) [Compound 1, Ethyl 2-(4-(benzyloxy)-3-[((2R)-4-methyl-2-[(9-oxo-9H-1-fluorenyl)carbonyl]aminopropanoyl)amino]-2-oxobutanoylamino)acetate], for which the “inhibition of migratory and invasice abilities of A2058 melanoma cells” value in experiment [1] is “effectively inhibited migratory and invasice abilities”. The same compound showed a lung weights in the experiment with A2058 melanoma cells (A2058 inoculated mice, i.v. in DMSO from day 7, treatment continued for 72 days, DMSO control 0.671 g) of 0.471 g. In addition, in the experiment on A2058 melanoma cells (i.v. in DMSO, 72 days), the “inhibition of cancer growth in A2058 inoculated mice” value is recorded as “effectively inhibited cancer growth”.
